How the values were obtained:
Type in all cases: in vivo
[1] = test system: oilseed rape (Brassica napus); assay: Test D controlled growth environment herbicide test, pre- and postemergence
Outline: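 Rating is visual, 0–100 scale (100 = complete control), made against untreated plants 14–21 d after treatment in controlled growth conditions. Postemergence sprays went onto 1- to 4-leaf plants in peat medium; preemergence sprays onto silt loam after sowing; formulation included a surfactant.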

[2] = test system: Italian ryegrass (Lolium multiflorum); assay: Test E greenhouse herbicide test, pre- and postemergence
Outline: (§1)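 Compounds in surfactant-containing solvent are applied to soil right after sowing (silt loam) and, in parallel, to 1- to 4-leaf plants in a peat-based medium. Weed control is scored visually on a 0 (none) to 100 (complete) scale at 14 to 21 d.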

[3] = test system: beggarticks (hairy beggarticks, Bidens pilosa); assay: as above
Outline: as §1

[4] = test system: crabgrass, Brazilian (Brazilian crabgrass, Digitaria horizontalis); assay: as above
Outline: as §1

[5] = test system: field bindweed (Convolvulus arvensis); assay: as above
Outline: as §1

[6] = test system: foxtail, green (green foxtail, Setaria viridis); assay: as above; conditions: Preemergence
Outline: as §1

[7] = test system: johnsongrass (Sorghum halepense); assay: as above; conditions: Preemergence
Outline: as §1

kochia (Kochia scoparia) = assay: as above
Outline: as §1

[8] = test system: nutsedge, yellow (yellow nutsedge, Cyperus esculentus); assay: as above; conditions: Preemergence
Outline: as §1

[9] = test system: waterhemp (common waterhemp, Amaranthus rudis); assay: as above
Outline: as §1

[10] = 62 g ai/ha, Postemergence, scale 0 to 100 (0 no effect, 100 complete control)
[11] = 62 g ai/ha, Preemergence, scale 0 to 100 (0 no effect, 100 complete control)
[12] = 125 g ai/ha, Postemergence, scale 0 to 100 (0 no effect, 100 complete control)
[13] = 125 g ai/ha, Preemergence, scale 0 to 100 (0 no effect, 100 complete control)
[14] = 250 g ai/ha, Postemergence, scale 0 to 100 (0 no effect, 100 complete control)
[15] = Postemergence, 31 g ai/ha, visual, scale 0 no effect to 100 complete control
[16] = Preemergence, 31 g ai/ha, scale 0 to 100, 0 no effect, 100 complete control
[17] = Preemergence, 250 g ai/ha, visual, scale 0 no effect to 100 complete control
[18] = 62 g ai/ha, scale 0 to 100 (0 no effect, 100 complete control)
[19] = 125 g ai/ha, scale 0 to 100 (0 no effect, 100 complete control)
[20] = 31 g ai/ha, scale 0 to 100, 0 no effect, 100 complete control
[21] = 250 g ai/ha, visual, scale 0 no effect to 100 complete control

SMILES: CCOC(=O)Oc1c(C)nn(C)c(=O)c1-c1c(C)sc2c(C)cc(C)cc12 [Compound 83]
- Oilseed Rape plant response rating ([1]; Postemergence, 31 g ai/ha, scale 0 to 100 (0 no effect, 100 complete control)): 65
- Plant response rating, Oilseed Rape ([1]; Postemergence, 125 g ai/ha, visual rating on scale 0 (no effect) to 100 (complete control), 14 to 21 d): 75
- Plant response rating, Oilseed Rape ([1]; Postemergence, 250 g ai/ha, scale 0 to 100 (0 no effect, 100 complete control)): 95
- Plant response rating (scale of 0 to 100), Oilseed Rape ([1]; Preemergence, 31 g ai/ha): 5
- Plant response rating (scale of 0 to 100), Oilseed Rape ([1]; Preemergence, 62 g ai/ha): 5
- Plant response rating, Oilseed Rape ([1]; Preemergence, 125 g ai/ha, scale 0 to 100 (0 no effect, 100 complete control)): 10
- Plant response rating, Oilseed Rape ([1]; Preemergence, 250 g ai/ha, scale 0 to 100 (0 no effect, 100 complete control)): 10
- Plant response rating, Oilseed Rape ([1]; postemergence, 62 g ai/ha, scale 0 to 100, 0 no effect, 100 complete control): 70
- Plant response rating, Ryegrass, Italian [2, 10]: 60
- Plant response rating, Ryegrass, Italian [2, 11]: 95
- Plant response rating, Ryegrass, Italian [2, 12]: 80
- Plant response rating, Ryegrass, Italian [2, 13]: 98
- Plant response rating, Ryegrass, Italian [2, 14]: 85
- Plant response rating, Ryegrass, Italian [2, 15]: 60
- Plant response rating, Ryegrass, Italian [2, 16]: 80
- Plant response rating, Ryegrass, Italian [2, 17]: 100
- Plant response rating, Beggarticks [3, 10]: 100
- Plant response rating, Beggarticks [3, 11]: 100
- Plant response rating, Beggarticks [3, 12]: 100
- Plant response rating, Beggarticks [3, 13]: 100
- Plant response rating, Beggarticks [3, 14]: 100
- Plant response rating, Beggarticks [3, 15]: 98
- Plant response rating, Beggarticks [3, 16]: 100
- Plant response rating, Beggarticks [3, 17]: 100
- Plant response rating, Crabgrass, Brazil [4, 10]: 40
- Plant response rating, Crabgrass, Brazil [4, 11]: 10
- Plant response rating, Crabgrass, Brazil [4, 12]: 50
- Plant response rating, Crabgrass, Brazil [4, 13]: 50
- Plant response rating, Crabgrass, Brazil [4, 14]: 50
- Plant response rating, Crabgrass, Brazil [4, 15]: 30
- Plant response rating, Crabgrass, Brazil [4, 16]: 0
- Plant response rating, Crabgrass, Brazil [4, 17]: 80
- Plant response rating, Field Bindweed [5, 10]: 70
- Plant response rating, Field Bindweed [5, 11]: 5
- Plant response rating, Field Bindweed [5, 12]: 70
- Plant response rating, Field Bindweed [5, 13]: 35
- Plant response rating, Field Bindweed [5, 14]: 75
- Plant response rating, Field Bindweed [5, 15]: 60
- Plant response rating, Field Bindweed [5, 16]: 0
- Plant response rating, Field Bindweed [5, 17]: 100
- Plant response rating, Foxtail, Green [6, 18]: 40
- Plant response rating, Foxtail, Green [6, 19]: 95
- Plant response rating, Foxtail, Green [6, 20]: 0
- Plant response rating, Foxtail, Green [6, 21]: 70
- Plant response rating, Johnsongrass [7, 18]: 0
- Plant response rating, Johnsongrass [7, 19]: 0
- Plant response rating, Johnsongrass [7, 20]: 0
- Plant response rating, Johnsongrass [7, 21]: 20
- Plant response rating, Kochia (kochia (Kochia scoparia); [10]): 60
- Plant response rating, Kochia (kochia (Kochia scoparia); [11]): 0
- Plant response rating, Kochia (kochia (Kochia scoparia); [12]): 75
- Plant response rating, Kochia (kochia (Kochia scoparia); [13]): 0
- Plant response rating, Kochia (kochia (Kochia scoparia); [14]): 65
- Plant response rating, Kochia (kochia (Kochia scoparia); [15]): 40
- Plant response rating, Kochia (kochia (Kochia scoparia); [16]): 0
- Plant response rating, Kochia (kochia (Kochia scoparia); [17]): 75
- Plant response rating, Nutsedge, Yellow [8, 18]: 65
- Plant response rating, Nutsedge, Yellow [8, 19]: 70
- Plant response rating, Nutsedge, Yellow [8, 20]: 65
- Plant response rating, Nutsedge, Yellow [8, 21]: 75
- Plant response rating, Waterhemp [9, 11]: 65
- Plant response rating, Waterhemp [9, 12]: 40
- Plant response rating, Waterhemp [9, 13]: 75
- Plant response rating, Waterhemp [9, 14]: 60
- Plant response rating, Waterhemp [9, 15]: 40
- Plant response rating, Waterhemp [9, 16]: 65
- Plant response rating, Waterhemp [9, 17]: 75
